{"source": "ChEMBL document CHEMBL6103537", "about": "(J Med Chem, 2025)", "key": {"[1]": {"assay": "Metabolic stability in human liver microsome assessed as parent compound remaining measured at 30 mins in presence of NADPH by LC-MS/MS analysis", "type": "ADME", "conditions": "liver microsomes, read-out: Stability"}, "[2]": {"target": "T1, Protein cereblon/Signal transducer and activator of transcription 6 (Homo sapiens, UniProt P42226+Q96SW2)", "assay": "PROTAC activity at STAT6/CRBN in human PBMC cells assessed as reduction in STAT6 level at 10 uM incubated for 18 hrs by Western blot analysis relative to control", "type": "cell-based"}, "[3]": {"target": "T2, Protein cereblon/Signal transducer and transcription activator 6 (Mus musculus) (UniProt P52633+Q8C7D2)", "T2 sequence (P52633 whole entry, looked up)": "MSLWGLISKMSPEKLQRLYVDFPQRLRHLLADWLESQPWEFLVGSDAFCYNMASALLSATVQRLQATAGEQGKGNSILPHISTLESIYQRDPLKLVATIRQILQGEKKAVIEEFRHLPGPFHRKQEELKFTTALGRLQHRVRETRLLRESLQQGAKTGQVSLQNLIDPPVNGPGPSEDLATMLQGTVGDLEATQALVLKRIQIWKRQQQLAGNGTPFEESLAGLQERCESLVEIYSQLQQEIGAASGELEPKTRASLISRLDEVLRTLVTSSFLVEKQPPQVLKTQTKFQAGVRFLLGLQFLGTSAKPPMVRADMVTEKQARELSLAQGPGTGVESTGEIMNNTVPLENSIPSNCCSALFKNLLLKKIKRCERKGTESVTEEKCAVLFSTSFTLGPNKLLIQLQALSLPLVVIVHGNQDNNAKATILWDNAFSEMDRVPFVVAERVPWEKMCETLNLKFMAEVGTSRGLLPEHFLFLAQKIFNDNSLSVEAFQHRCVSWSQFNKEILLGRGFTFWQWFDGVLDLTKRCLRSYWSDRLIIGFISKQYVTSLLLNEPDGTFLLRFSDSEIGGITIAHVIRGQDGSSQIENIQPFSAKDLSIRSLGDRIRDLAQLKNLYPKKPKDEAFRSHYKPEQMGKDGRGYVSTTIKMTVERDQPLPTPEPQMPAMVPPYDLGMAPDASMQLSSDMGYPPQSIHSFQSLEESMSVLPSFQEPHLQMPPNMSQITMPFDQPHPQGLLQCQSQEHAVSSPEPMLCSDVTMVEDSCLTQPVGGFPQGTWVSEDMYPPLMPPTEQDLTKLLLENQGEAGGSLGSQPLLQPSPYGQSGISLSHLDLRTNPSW", "T2 sequence (Q8C7D2 whole entry, looked up)": "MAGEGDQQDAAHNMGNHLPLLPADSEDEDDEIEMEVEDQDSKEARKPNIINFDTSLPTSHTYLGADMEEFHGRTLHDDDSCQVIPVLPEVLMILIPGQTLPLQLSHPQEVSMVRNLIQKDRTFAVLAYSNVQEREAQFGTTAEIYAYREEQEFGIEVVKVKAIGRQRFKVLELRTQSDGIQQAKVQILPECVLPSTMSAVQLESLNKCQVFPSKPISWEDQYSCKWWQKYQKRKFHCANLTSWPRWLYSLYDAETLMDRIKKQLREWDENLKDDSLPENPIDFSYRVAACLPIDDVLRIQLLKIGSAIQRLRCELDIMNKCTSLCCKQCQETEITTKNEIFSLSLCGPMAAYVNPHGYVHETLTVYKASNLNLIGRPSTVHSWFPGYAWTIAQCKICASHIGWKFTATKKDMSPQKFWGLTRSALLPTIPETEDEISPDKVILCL", "assay": "In vivo PROTAC activity at STAT6/CRBN in BALB/c mouse assessed as reduction in STAT6 level in liver at 200 mg/kg, ip measured at 2 to 24 hrs by Western blot analysis", "type": "functional, organism-based", "set-up": "scale not given: the % may be the effect or the level left", "conditions": "time 2-24 hrs"}, "[4]": {"target": "T3, Protein cereblon/Signal transducer and activator of transcription 2 (Homo sapiens) (UniProt Q96SW2+P52630)", "T3 sequence (P52630 whole entry, looked up)": "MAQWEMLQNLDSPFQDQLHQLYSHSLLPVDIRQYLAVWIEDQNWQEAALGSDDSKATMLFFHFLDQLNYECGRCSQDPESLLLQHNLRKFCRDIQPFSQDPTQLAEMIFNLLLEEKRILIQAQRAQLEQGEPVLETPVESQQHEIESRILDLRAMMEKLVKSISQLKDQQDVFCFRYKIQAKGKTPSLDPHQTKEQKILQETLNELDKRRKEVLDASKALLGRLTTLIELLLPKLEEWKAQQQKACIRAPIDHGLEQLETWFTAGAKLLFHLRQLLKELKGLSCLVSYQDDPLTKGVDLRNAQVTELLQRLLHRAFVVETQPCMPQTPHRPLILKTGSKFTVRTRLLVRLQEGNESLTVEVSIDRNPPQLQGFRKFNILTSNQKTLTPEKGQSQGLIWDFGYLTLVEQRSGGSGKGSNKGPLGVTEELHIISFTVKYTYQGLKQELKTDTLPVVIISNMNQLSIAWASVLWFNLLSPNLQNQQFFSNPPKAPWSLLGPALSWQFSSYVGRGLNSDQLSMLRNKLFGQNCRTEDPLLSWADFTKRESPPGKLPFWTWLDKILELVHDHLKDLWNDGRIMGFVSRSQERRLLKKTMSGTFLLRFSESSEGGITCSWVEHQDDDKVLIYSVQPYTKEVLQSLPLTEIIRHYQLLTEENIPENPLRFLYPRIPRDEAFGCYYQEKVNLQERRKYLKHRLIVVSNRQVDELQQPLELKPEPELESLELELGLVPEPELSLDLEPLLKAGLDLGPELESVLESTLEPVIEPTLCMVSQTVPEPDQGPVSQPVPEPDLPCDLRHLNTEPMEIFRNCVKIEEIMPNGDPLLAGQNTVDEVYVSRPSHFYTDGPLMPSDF", "T3 sequence (Q96SW2 whole entry, looked up)": "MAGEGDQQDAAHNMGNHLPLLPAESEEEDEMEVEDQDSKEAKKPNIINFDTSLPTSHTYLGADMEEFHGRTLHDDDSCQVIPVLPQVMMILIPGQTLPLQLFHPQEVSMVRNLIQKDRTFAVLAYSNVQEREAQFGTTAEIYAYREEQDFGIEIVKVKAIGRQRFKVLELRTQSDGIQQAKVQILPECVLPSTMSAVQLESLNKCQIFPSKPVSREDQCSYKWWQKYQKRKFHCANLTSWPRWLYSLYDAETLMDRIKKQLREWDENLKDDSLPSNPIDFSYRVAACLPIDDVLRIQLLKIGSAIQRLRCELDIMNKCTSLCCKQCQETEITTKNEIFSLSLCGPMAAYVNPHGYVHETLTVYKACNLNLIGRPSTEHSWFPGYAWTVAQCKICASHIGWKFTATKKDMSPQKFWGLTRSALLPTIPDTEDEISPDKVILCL", "assay": "PROTAC activity at STAT2/CRBN in human MV4-11 cells assessed as reduction in STAT2 level at 10 uM incubated for 12 hrs by Western blot analysis relative to control", "type": "cell-based"}, "[5]": {"assay": "Metabolic stability in mouse liver microsome assessed as parent compound remaining measured at 30 mins in presence of NADPH by LC-MS/MS analysis", "type": "ADME", "conditions": "liver microsomes, read-out: Stability"}, "[6]": {"target": "T2, Protein cereblon/Signal transducer and transcription activator 6 (Mus musculus)", "assay": "In vivo PROTAC activity at STAT6/CRBN in BALB/c mouse assessed as reduction in STAT6 level in lung at 200 mg/kg, ip measured at 2 hrs by Western blot analysis", "type": "functional, organism-based", "set-up": "scale not given: the % may be the effect or the level left"}, "[7]": {"assay": "Stability in monkey plasma assessed as parent compound remaining measured at 15 mins by LC-MS/MS analysis", "type": "ADME, cell-free, Macaca mulatta", "conditions": "rhesus monkey, read-out: Stability"}, "[8]": {"assay": "Stability in monkey plasma assessed as half life measured upto 60 mins by LC-MS/MS analysis", "type": "ADME, cell-free, Macaca mulatta", "conditions": "rhesus monkey"}, "[9]": {"target": "T4, Protein cereblon/Signal transducer and activator of transcription 5A/Signal transducer and activator of transcription 5B (Homo sapiens) (UniProt P42229+P51692+Q96SW2)", "T4 sequence (P42229 whole entry, looked up)": "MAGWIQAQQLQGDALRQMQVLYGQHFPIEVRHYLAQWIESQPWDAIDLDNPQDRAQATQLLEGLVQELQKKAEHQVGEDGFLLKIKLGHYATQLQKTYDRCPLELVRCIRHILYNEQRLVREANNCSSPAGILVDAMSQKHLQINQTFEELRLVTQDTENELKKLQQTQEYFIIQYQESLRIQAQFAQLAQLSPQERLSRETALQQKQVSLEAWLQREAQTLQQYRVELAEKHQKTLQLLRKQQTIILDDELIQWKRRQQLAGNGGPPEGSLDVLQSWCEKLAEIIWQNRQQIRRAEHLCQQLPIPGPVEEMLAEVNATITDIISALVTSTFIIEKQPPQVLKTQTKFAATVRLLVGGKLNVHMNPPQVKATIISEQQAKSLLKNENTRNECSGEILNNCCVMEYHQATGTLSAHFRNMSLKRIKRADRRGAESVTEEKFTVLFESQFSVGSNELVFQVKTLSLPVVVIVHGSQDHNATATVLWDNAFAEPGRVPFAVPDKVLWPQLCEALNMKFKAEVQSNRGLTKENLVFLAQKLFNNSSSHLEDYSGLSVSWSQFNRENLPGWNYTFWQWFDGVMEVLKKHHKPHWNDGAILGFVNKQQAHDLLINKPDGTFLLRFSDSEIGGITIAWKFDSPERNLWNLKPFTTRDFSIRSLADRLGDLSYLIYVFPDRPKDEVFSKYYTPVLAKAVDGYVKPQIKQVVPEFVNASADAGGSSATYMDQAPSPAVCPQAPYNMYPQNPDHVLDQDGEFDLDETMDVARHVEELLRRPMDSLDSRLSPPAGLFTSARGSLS", "T4 sequence (P51692 whole entry, looked up)": "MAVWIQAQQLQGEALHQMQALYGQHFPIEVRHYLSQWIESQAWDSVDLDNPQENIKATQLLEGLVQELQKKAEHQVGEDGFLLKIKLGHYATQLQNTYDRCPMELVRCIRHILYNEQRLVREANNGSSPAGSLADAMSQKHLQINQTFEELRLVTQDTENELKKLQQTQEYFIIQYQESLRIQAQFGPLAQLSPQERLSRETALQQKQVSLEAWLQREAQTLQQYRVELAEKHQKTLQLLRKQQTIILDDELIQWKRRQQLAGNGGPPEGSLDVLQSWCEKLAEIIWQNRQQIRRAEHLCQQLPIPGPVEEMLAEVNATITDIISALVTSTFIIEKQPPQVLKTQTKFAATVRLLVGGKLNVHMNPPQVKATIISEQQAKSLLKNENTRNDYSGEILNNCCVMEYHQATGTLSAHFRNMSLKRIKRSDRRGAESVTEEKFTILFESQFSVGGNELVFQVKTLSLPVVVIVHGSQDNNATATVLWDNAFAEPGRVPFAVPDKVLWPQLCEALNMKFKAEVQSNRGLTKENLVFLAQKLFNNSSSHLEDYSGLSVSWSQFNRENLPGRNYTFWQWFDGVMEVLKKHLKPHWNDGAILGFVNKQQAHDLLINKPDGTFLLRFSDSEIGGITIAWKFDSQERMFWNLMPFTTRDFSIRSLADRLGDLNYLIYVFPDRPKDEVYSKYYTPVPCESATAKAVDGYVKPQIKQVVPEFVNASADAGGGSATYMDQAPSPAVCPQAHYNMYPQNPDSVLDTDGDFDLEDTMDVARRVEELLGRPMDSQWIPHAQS", "T4 sequence (Q96SW2 whole entry, looked up)": "as the sequence (Q96SW2 whole entry, looked up) above", "assay": "PROTAC activity at STAT5/CRBN in human PBMC cells assessed as reduction in STAT5 level at 10 uM incubated for 18 hrs by Western blot analysis relative to control", "type": "cell-based"}, "[10]": {"target": "Cereblon/Ikaros (Homo sapiens) (UniProt Q96SW2+Q13422)", "assay": "PROTAC activity at CRBN/IKZF1 in human Jurkat cells assessed as degradation of IKZF1 protein at 0.01 to 10 uM incubated for 20 hrs by Western blotting analysis", "type": "cell-based", "conditions": "dose 0.01-10 µM"}, "[11]": {"assay": "Stability in human plasma assessed as parent compound remaining measured at 30 mins by LC-MS/MS analysis", "type": "ADME, cell-free", "conditions": "read-out: Stability"}, "[12]": {"target": "T1, Protein cereblon/Signal transducer and activator of transcription 6", "assay": "PROTAC activity at STAT6/CRBN in human PBMC cells assessed as reduction in STAT6 level incubated for 18 hrs by Western blot analysis", "type": "cell-based"}, "[13]": {"target": "T4, Protein cereblon/Signal transducer and activator of transcription 5A/Signal transducer and activator of transcription 5B (Homo sapiens)", "assay": "PROTAC activity at STAT5/CRBN in human MV4-11 cells assessed as reduction in STAT5 level at upto 10 uM incubated for 12 hrs by Western blot analysis", "type": "cell-based"}, "[14]": {"assay": "Metabolic stability in monkey liver microsome assessed as parent compound remaining measured at 5 mins in presence of NADPH by LC-MS/MS analysis", "type": "ADME, Macaca mulatta", "conditions": "rhesus monkey, liver microsomes, read-out: Stability"}, "[15]": {"assay": "Stability in rat plasma assessed as parent compound remaining measured at 5 mins by LC-MS/MS analysis", "type": "ADME, cell-free", "conditions": "read-out: Stability"}, "[16]": {"target": "T1, Protein cereblon/Signal transducer and activator of transcription 6", "assay": "PROTAC activity at STAT6/CRBN in human L-1236 cells assessed as reduction in STAT6 level incubated for 24 hrs by Western blot analysis", "type": "cell-based", "conditions": "dose 10.0 µM"}, "[17]": {"assay": "Stability in human plasma assessed as half life measured upto 60 mins by LC-MS/MS analysis", "type": "ADME, cell-free"}, "[18]": {"target": "T3, Protein cereblon/Signal transducer and activator of transcription 2 (Homo sapiens)", "assay": "PROTAC activity at STAT2/CRBN in human L-1236 cells assessed as reduction in STAT2 level at 10 uM incubated for 24 hrs by Western blot analysis", "type": "cell-based"}, "[19]": {"assay": "Metabolic stability in rat liver microsome assessed as half life measured upto 60 mins in presence of NADPH by LC-MS/MS analysis", "type": "ADME", "conditions": "liver microsomes"}, "[20]": {"assay": "Stability in mouse plasma assessed as parent compound remaining measured at 60 mins by LC-MS/MS analysis", "type": "ADME, cell-free", "conditions": "read-out: Stability"}, "[21]": {"target": "T2, Protein cereblon/Signal transducer and transcription activator 6 (Mus musculus)", "assay": "In vivo PROTAC activity at STAT6/CRBN in BALB/c mouse assessed as reduction in STAT6 level in lung at 200 mg/kg, ip measured at 24 hrs by Western blot analysis", "type": "functional, organism-based", "set-up": "scale not given: the % may be the effect or the level left"}, "[22]": {"system": "PBMC", "assay": "Downregulation of STAT5 level in human PBMC cells at 5 uM incubated for 18 hrs by Western blot analysis relative to control", "type": "functional, cell-based"}, "[23]": {"system": "PBMC", "assay": "Downregulation of STAT1 level in human PBMC cells at 5 uM incubated for 18 hrs by Western blot analysis relative to control", "type": "functional, cell-based"}, "[24]": {"target": "T5, Protein cereblon/Signal transducer and activator of transcription 4 (Homo sapiens) (UniProt Q96SW2+Q14765)", "T5 sequence (Q14765 whole entry, looked up)": "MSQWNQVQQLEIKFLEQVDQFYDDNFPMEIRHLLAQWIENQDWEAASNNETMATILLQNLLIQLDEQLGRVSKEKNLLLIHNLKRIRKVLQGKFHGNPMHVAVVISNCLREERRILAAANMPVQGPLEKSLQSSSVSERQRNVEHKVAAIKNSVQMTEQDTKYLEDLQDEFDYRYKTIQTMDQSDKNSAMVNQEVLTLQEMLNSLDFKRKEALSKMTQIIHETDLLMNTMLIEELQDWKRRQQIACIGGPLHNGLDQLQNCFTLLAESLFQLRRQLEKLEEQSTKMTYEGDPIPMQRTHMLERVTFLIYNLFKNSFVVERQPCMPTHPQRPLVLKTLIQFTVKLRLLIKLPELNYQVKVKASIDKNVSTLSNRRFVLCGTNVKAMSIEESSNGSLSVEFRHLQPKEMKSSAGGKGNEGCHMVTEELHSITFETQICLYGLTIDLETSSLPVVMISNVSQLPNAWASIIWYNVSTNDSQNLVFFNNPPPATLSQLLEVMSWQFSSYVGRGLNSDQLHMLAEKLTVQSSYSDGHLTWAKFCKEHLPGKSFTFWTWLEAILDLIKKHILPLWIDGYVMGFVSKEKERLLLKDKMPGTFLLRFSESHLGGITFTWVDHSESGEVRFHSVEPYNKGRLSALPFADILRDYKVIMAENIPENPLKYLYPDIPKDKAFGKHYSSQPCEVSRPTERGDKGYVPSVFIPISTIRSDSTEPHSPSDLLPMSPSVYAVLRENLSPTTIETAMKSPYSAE", "T5 sequence (Q96SW2 whole entry, looked up)": "as the sequence (Q96SW2 whole entry, looked up) above", "assay": "PROTAC activity at STAT4/CRBN in human L-1236 cells assessed as reduction in STAT4 level at 10 uM incubated for 24 hrs by Western blot analysis", "type": "cell-based"}, "[25]": {"assay": "Metabolic stability in dog liver microsome assessed as parent compound remaining measured at 30 mins in presence of NADPH by LC-MS/MS analysis", "type": "ADME, Canis lupus familiaris", "conditions": "liver microsomes, read-out: Stability"}, "[26]": {"assay": "Stability in mouse plasma assessed as parent compound remaining measured at 15 mins by LC-MS/MS analysis", "type": "ADME, cell-free", "conditions": "read-out: Stability"}, "[27]": {"target": "T1, Protein cereblon/Signal transducer and activator of transcription 6", "assay": "PROTAC activity at STAT6/CRBN in human MV4-11 cells assessed as reduction in STAT6 level at 2 uM measured upto 1200 mins in presence of lenalidomide by HiBiT bioluminescence assay", "type": "cell-based", "conditions": "Jurkat"}, "[28]": {"assay": "Metabolic stability in human liver microsome assessed as parent compound remaining measured at 45 mins in presence of NADPH by LC-MS/MS analysis", "type": "ADME", "conditions": "liver microsomes, read-out: Stability"}, "[29]": {"assay": "Metabolic stability in monkey liver microsome assessed as half life measured upto 60 mins in presence of NADPH by LC-MS/MS analysis", "type": "ADME, Macaca mulatta", "conditions": "rhesus monkey, liver microsomes"}, "[30]": {"assay": "Stability in human plasma assessed as parent compound remaining measured at 5 mins by LC-MS/MS analysis", "type": "ADME, cell-free", "conditions": "read-out: Stability"}, "[31]": {"target": "T5, Protein cereblon/Signal transducer and activator of transcription 4 (Homo sapiens)", "assay": "PROTAC activity at STAT4/CRBN in human PBMC cells assessed as reduction in STAT4 level at 10 uM incubated for 18 hrs by Western blot analysis relative to control", "type": "cell-based"}, "[32]": {"target": "Protein cereblon/Signal transducer and activator of transcription 3 (Homo sapiens) (UniProt P40763+Q96SW2)", "assay": "PROTAC activity at STAT3/CRBN in human PBMC cells assessed as reduction in STAT3 level at 10 uM incubated for 18 hrs by Western blot analysis relative to control", "type": "cell-based"}, "[33]": {"target": "T3, Protein cereblon/Signal transducer and activator of transcription 2 (Homo sapiens)", "assay": "PROTAC activity at STAT2/CRBN in human MV4-11 cells assessed as reduction in STAT2 level at 2 uM incubated for 12 hrs by Western blot analysis relative to control", "type": "cell-based"}}, "note": "The source made the active and inactive calls. The rule behind the calls is not given here.", "data": [{"molecule": "CC(C)(C)[C@H](NC(=O)c1cc2cc(C(F)(F)P(=O)(O)O)ccc2s1)C(=O)N1C[C@@H](OCCCCCC#Cc2cccc3c2CN(C2CCC(=O)NC2=O)C3=O)C[C@H]1C(=O)N1CCO[C@H](c2ccccc2)C1", "note": "(stereo partly drawn)", "values": [{"measurement": "remaining at 0.5 h", "setting": "[1]", "result": 92, "unit": "%"}, {"measurement": "Emax", "setting": "[2]", "result": "> 90", "unit": "%"}, {"measurement": "Activity", "setting": "[3]", "result": "> 90", "unit": "%"}, {"measurement": "Emax", "setting": "[4]", "result": "< 40", "unit": "%"}, {"measurement": "remaining at 0.5 h", "setting": "[5]", "result": 94, "unit": "%"}, {"measurement": "Activity", "setting": "[6]", "result": "> 70", "unit": "%"}, {"measurement": "remaining at 0.25 h", "setting": "[7]", "result": 111, "unit": "%"}, {"measurement": "half-life", "setting": "[8]", "result": "> 2", "unit": "h"}, {"measurement": "Activity", "setting": "[9]", "result": "No effect"}, {"measurement": "Activity", "setting": "[10]", "result": "Active"}, {"measurement": "remaining at 0.5 h", "setting": "[11]", "result": 82, "unit": "%"}, {"measurement": "DC50", "setting": "[12]", "result": 80, "unit": "nM"}, {"measurement": "Activity", "setting": "[13]", "result": "No effect"}, {"measurement": "remaining at 5 min", "setting": "[14]", "result": 95, "unit": "%"}, {"measurement": "remaining at 5 min", "setting": "[15]", "result": 86, "unit": "%"}, {"measurement": "Activity", "setting": "[16]", "result": "Dose-dependent-effect"}, {"measurement": "half-life", "setting": "[17]", "result": "> 2", "unit": "h"}, {"measurement": "Activity", "setting": "[18]", "result": "No effect"}, {"measurement": "half-life", "setting": "[19]", "result": "> 2", "unit": "h"}, {"measurement": "remaining at 1 h", "setting": "[20]", "result": 91, "unit": "%"}, {"measurement": "Activity", "setting": "[21]", "result": "> 70", "unit": "%"}, {"measurement": "Activity", "setting": "[22]", "result": "inactive"}, {"measurement": "Activity", "setting": "[23]", "result": "inactive"}, {"measurement": "Activity", "setting": "[24]", "result": "No effect"}, {"measurement": "remaining at 0.5 h", "setting": "[25]", "result": 95, "unit": "%"}, {"measurement": "remaining at 0.25 h", "setting": "[26]", "result": 100, "unit": "%"}, {"measurement": "Activity", "setting": "[27]", "result": "Active"}, {"measurement": "remaining at 0.75 h", "setting": "[28]", "result": 91, "unit": "%"}, {"measurement": "half-life", "setting": "[29]", "result": 1.05, "unit": "h"}, {"measurement": "remaining at 5 min", "setting": "[30]", "result": 79, "unit": "%"}, {"measurement": "Activity", "setting": "[31]", "result": "No effect"}, {"measurement": "Activity", "setting": "[32]", "result": "No effect"}, {"measurement": "Emax", "setting": "[33]", "result": "< 40", "unit": "%"}]}]}
